Data taken from patent US20230257396A1, “MACROCYCLES AND THEIR USE” (BLOSSOMHILL THERAPEUTICS, INC., priority 2020, published 2023).

Tests used:
Experiment in all cases: KINOMEscan kinase binding assay (Eurofins/DiscoveRx), % Ctrl
kinases [1] = target: T1, kinases (Homo sapiens, UniProt P07949)
T1 construct: purchased Eurofins/DiscoveRx; host or cells: E. coli BL21-derived host (T7 phage display) for most kinases; HEK-293 for the rest
Summary of the method: (§1)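 Competition binding: DNA- or phage-tagged kinases (T7 phage in E. coli BL21, or HEK-293-expressed) with immobilized biotinylated ligand beads and test compound, 1 h at room temperature. Bead-bound kinase eluted and quantified by qPCR; % Ctrl = (compound − positive control)/(negative control − positive control) ×100 at a single compound concentration.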

kinases [2] = target: T2, kinases (Homo sapiens, UniProt P36888, R834Q)
T2 construct: purchased Eurofins/DiscoveRx; host or cells: E. coli BL21-derived host (T7 phage display) for most kinases; HEK-293 for the rest
T2 sequence (P36888 27-993 R834Q): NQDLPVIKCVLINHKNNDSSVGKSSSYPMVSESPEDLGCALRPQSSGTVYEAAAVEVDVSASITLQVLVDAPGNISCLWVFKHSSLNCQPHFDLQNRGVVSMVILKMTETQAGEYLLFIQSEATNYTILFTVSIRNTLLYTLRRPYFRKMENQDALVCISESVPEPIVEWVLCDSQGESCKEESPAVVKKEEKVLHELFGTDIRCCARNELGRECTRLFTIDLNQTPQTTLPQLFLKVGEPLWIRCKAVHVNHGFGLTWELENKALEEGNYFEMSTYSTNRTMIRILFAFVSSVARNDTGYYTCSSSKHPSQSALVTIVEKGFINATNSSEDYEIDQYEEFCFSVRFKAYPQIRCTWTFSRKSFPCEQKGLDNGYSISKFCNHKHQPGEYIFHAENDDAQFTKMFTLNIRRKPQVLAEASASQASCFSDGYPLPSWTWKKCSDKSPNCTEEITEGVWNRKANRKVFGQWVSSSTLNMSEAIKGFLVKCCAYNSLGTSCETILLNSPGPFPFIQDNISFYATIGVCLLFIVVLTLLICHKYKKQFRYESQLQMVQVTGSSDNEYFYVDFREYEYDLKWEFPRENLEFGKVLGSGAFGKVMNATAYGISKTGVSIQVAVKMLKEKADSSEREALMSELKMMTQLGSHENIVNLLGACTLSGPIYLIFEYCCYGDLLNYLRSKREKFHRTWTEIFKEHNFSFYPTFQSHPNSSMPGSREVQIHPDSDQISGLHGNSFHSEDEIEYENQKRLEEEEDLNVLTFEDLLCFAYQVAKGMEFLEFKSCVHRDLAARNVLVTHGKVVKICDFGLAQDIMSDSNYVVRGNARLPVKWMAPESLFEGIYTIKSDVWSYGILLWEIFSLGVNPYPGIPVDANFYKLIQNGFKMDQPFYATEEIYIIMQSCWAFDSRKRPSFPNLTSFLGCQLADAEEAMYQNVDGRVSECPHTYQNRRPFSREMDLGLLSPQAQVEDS
Summary of the method: as §1

kinases [3] = target: T3, kinases (Homo sapiens, UniProt P00519, M351T)
T3 construct: purchased Eurofins/DiscoveRx; host or cells: E. coli BL21-derived host (T7 phage display) for most kinases; HEK-293 for the rest
Summary of the method: as §1

kinases [4] = target: T4, kinases (Homo sapiens, UniProt P10721, V559D)
T4 construct: purchased Eurofins/DiscoveRx; host or cells: E. coli BL21-derived host (T7 phage display) for most kinases; HEK-293 for the rest
Summary of the method: as §1

kinases [5] = target: T5, kinases (Homo sapiens, UniProt P17948)
T5 construct: purchased Eurofins/DiscoveRx; host or cells: E. coli BL21-derived host (T7 phage display) for most kinases; HEK-293 for the rest
Summary of the method: as §1

kinases [6] = target: T6, kinases (Homo sapiens, UniProt P07949, V804M)
T6 construct: purchased Eurofins/DiscoveRx; host or cells: E. coli BL21-derived host (T7 phage display) for most kinases; HEK-293 for the rest
Summary of the method: as §1

kinases [7] = target: T7, kinases (Homo sapiens, UniProt P10721, A829P)
T7 construct: purchased Eurofins/DiscoveRx; host or cells: E. coli BL21-derived host (T7 phage display) for most kinases; HEK-293 for the rest
Summary of the method: as §1

kinases [8] = target: T8, kinases (Homo sapiens, UniProt P16234)
T8 construct: purchased Eurofins/DiscoveRx; host or cells: E. coli BL21-derived host (T7 phage display) for most kinases; HEK-293 for the rest
Summary of the method: as §1

kinases [9] = target: T9, kinases (Homo sapiens, UniProt P10721, D816V)
T9 construct: purchased Eurofins/DiscoveRx; host or cells: E. coli BL21-derived host (T7 phage display) for most kinases; HEK-293 for the rest
Summary of the method: as §1

[10] = 1 μM; ABL1(M351T)-phosphorylated
[11] = 1 μM; target ABL1(M351T)-phosphorylated

T9 sequence (P10721 26-976 D816V): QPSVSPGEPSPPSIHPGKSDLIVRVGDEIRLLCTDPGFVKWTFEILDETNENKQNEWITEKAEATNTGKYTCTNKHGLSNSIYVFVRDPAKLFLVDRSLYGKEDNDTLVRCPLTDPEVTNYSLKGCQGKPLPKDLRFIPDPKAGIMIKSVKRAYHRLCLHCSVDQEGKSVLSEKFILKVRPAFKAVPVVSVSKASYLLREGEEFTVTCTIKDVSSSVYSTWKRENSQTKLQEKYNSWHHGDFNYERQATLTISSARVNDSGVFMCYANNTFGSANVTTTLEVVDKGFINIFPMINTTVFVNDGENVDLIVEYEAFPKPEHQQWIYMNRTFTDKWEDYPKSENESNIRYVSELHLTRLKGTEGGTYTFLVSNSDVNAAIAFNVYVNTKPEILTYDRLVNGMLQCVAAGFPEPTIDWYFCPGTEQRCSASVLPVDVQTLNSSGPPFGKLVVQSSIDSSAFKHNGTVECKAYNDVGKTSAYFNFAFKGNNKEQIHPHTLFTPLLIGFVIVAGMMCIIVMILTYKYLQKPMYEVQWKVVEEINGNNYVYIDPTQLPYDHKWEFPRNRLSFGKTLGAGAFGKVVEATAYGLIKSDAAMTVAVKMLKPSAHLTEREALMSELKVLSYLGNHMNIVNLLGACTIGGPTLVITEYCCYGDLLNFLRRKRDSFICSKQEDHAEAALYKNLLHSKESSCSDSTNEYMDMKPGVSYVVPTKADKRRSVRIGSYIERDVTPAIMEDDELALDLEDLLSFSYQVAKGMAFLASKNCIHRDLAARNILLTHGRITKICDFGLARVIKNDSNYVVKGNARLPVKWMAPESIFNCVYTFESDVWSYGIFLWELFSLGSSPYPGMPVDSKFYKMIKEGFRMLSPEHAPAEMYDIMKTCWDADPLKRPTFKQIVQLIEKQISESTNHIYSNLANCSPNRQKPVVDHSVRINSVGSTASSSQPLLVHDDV
T5 sequence (P17948 27-1338): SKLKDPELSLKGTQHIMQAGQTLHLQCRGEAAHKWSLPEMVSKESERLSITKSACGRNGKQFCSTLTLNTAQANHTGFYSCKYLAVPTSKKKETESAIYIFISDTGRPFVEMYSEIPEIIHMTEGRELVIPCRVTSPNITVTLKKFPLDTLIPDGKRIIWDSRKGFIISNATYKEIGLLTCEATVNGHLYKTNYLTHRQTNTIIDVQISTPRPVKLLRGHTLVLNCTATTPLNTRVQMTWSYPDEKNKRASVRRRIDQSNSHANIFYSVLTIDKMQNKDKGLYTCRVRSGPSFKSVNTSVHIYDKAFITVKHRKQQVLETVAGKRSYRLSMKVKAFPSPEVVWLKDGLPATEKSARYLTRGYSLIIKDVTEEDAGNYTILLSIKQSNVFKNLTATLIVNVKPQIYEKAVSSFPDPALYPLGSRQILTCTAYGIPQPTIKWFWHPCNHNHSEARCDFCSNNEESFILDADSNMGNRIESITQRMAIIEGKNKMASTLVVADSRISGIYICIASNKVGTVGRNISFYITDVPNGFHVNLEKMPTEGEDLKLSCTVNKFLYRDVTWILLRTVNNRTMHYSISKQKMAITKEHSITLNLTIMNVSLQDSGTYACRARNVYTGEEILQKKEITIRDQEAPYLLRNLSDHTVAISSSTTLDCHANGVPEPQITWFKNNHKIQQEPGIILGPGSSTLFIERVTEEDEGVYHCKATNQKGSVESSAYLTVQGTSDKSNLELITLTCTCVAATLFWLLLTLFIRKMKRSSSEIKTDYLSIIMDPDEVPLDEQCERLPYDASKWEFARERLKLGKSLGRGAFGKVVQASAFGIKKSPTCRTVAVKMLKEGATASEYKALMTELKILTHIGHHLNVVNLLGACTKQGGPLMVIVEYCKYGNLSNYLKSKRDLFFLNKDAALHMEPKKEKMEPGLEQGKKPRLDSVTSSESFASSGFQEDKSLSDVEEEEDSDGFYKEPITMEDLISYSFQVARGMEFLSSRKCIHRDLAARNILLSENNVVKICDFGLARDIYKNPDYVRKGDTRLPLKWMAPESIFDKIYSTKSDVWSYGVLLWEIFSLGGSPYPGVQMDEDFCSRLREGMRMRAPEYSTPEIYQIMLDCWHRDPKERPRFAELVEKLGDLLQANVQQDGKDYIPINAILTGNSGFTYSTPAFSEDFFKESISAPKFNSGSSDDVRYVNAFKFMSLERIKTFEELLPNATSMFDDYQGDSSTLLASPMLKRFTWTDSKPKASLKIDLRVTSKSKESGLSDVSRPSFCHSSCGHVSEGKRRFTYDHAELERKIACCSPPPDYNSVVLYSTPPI
T8 sequence (P16234 24-1089): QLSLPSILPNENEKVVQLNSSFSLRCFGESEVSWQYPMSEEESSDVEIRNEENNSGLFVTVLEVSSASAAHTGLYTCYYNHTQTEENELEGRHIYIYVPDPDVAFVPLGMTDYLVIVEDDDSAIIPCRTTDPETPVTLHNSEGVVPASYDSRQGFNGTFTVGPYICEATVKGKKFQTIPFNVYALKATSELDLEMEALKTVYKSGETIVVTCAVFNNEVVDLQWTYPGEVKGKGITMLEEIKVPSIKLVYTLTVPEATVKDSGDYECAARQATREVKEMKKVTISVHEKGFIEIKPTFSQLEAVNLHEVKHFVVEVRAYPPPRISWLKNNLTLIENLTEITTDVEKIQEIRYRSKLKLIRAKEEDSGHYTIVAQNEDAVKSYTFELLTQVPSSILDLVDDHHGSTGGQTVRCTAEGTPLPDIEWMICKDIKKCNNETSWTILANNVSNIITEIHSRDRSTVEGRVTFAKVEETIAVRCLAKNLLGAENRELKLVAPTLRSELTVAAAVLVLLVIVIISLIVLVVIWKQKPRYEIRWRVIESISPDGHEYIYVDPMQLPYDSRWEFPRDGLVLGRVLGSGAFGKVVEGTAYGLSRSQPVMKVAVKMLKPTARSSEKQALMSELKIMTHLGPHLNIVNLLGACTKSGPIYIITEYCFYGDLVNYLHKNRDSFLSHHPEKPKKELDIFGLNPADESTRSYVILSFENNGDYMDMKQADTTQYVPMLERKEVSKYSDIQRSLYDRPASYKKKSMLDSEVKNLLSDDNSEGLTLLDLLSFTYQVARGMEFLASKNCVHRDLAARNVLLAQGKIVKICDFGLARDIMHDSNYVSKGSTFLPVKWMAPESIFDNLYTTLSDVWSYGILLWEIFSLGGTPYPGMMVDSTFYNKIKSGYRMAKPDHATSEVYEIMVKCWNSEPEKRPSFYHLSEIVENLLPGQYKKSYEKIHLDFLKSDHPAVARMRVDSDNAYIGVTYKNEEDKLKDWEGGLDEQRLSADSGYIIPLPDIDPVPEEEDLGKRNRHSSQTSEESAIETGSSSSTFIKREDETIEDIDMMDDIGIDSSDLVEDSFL
T7 sequence (P10721 26-976 A829P): as the sequence (P10721 26-976 D816V) above, with V791D, A804P counted along it
T4 sequence (P10721 26-976 V559D): as the sequence (P10721 26-976 D816V) above, with V534D, V791D counted along it
T6 sequence (P07949 29-1114 V804M): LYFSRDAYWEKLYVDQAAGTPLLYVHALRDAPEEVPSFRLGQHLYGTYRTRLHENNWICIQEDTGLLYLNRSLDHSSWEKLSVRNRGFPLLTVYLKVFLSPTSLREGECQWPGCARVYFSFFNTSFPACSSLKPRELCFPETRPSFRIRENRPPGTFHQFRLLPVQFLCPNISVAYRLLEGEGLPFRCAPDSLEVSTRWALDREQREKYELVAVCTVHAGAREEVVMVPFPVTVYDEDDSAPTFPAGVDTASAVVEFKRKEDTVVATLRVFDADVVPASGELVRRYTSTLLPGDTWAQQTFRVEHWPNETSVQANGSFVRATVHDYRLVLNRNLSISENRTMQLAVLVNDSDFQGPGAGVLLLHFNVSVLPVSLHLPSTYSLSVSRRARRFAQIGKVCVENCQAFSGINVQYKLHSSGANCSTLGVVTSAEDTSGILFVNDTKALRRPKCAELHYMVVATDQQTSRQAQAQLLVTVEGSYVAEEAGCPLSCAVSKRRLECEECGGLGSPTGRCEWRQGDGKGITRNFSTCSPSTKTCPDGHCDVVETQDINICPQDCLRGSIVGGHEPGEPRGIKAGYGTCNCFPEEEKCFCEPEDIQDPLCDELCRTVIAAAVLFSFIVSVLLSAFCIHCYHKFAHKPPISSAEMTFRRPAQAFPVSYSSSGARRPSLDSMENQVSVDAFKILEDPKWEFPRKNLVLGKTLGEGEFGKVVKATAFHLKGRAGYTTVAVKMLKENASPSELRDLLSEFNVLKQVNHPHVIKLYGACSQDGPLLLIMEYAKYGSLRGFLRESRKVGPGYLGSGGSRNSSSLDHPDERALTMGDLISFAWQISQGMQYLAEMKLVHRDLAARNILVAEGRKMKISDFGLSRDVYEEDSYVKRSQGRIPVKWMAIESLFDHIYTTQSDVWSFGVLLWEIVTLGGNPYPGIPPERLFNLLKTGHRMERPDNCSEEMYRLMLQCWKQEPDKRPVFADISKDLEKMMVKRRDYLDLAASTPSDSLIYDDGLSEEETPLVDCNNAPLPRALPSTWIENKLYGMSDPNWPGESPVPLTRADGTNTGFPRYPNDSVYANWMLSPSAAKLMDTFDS
T1 sequence (P07949 29-1114): as the sequence (P07949 29-1114 V804M) above, with M776V counted along it

| % Ctrl, RET (kinases [1]; 1 μM; RET) [% Ctrl] | % Ctrl, FLT3(R834Q) (kinases [2]; 1 μM; FLT3(R834Q)) [% Ctrl] | % Ctrl, ABL1(M351T)-phosphorylated (kinases [3]; [10]) [% Ctrl] | % Ctrl, KIT(V559D) (kinases [4]; 1 μM; KIT(V559D)) [% Ctrl] | % Ctrl, FLT1 (kinases [5]; 1 μM; FLT1) [% Ctrl] | % Ctrl, RET(V804M) (kinases [6]; 1 μM; RET(V804M)) [% Ctrl] | % Ctrl, KIT(A829P) (kinases [7]; 1 μM; KIT(A829P)) [% Ctrl] | % Ctrl, PDGFRA (kinases [8]; 1 μM; PDGFRA) [% Ctrl] | % Ctrl, KIT(D816V) (kinases [9]; 1 μM; KIT(D816V)) [% Ctrl] | % Ctrl, RET (kinases [1]; 1 μM; target RET) [% Ctrl] | % Ctrl, FLT3(R834Q) (kinases [2]; 1 μM; target FLT3(R834Q)) [% Ctrl] | % Ctrl, ABL1(M351T)-phosphorylated (kinases [3]; [11]) [% Ctrl] | % Ctrl, KIT(V559D) (kinases [4]; 1 μM; target KIT(V559D)) [% Ctrl] | % Ctrl, FLT1 (kinases [5]; 1 μM; target FLT1) [% Ctrl] | % Ctrl, RET(V804M) (kinases [6]; 1 μM; target RET(V804M)) [% Ctrl] | % Ctrl, KIT(A829P) (kinases [7]; 1 μM; target KIT(A829P)) [% Ctrl] | % Ctrl, PDGFRA (kinases [8]; 1 μM; target PDGFRA) [% Ctrl] | % Ctrl, KIT(D816V) (kinases [9]; 1 μM; target KIT(D816V)) [% Ctrl] | SMILES | further results |
| --- | --- | --- | --- | --- | --- | --- | --- | --- | --- | --- | --- | --- | --- | --- | --- | --- | --- | --- | --- |
| 34 | 15 | 53 | 64 | 81 | 19 | 45 | 19 | 38 |  |  |  |  |  |  |  |  |  | Cc1cc2c([nH]1)/C=C1\C(=O)Nc3ccc(cc31)-c1ccnn1CCOCCN(C)C2=O [Ex. 41, [19a(20)Z]-2,5-dimethyl-6,7,9,10-tetrahydro-1H-15,17-(ethanediylidene)pyrazolo[1,5-d]dipyrrolo[3,4-h:2′,3′-k][1,4,14]oxadiazacyclohexadecine-4,19(5H,18H)-dione] |  |
|  |  |  |  |  |  |  |  |  | 0 | 5.9 | 0.1 | 1.2 | 12 | 0.9 | 22 | 16 | 1.6 | Cc1cc2c([nH]1)/C=C1\C(=O)Nc3cc(Cl)c(cc31)SCCOCCN(C)C2=O [Ex. 169, [16a(17)Z]-19-chloro-5-methyl-6,7,9,10-tetrahydro-1H-12,14-(ethanediylidene)dipyrrolo[3,4-g:2′,3′-j][1,4,13]oxathiazacyclopentadecine-4,16(5H,15H)-dione] |  |
|  |  |  |  |  |  |  |  |  | 7.1 | 2.1 | 3.1 | 54 | 79 | 0.1 | 28 | 50 | 2.8 | Cc1cc2c([nH]1)/C=C1\C(=O)Nc3ccc(cc31)-c1cnn(C)c1OCCCN(C)C2=O [Ex. 166, [3a(4)Z]-9,14-dimethyl-9,10,11,12-tetrahydro-14H-1,17-(ethanediylidene)pyrazolo[4,3-n]dipyrrolo[3,2-g:3′,4′-j][1,5]oxazacyclopentadecine-3,8(2H,5H)-dione] |  |
|  |  |  |  |  |  |  |  |  | 0 | 13 | 0.3 | 6.9 | 13 | 2.1 | 33 | 30 | 3.3 | CN1CCOc2cc3c(cc2Cl)NC(=O)/C3=C\c2[nH]ccc2C(=O)N(C)CC1 [Ex. 164, [16a(17)Z]-19-chloro-2,5,8-trimethyl-5,6,7,8,9,10-hexahydro-12,14-(ethanediylidene)dipyrrolo[3,2-i:3′,4′-l][1,4,7]oxadiazacyclopentadecine-4,16(1H,15H)-dione] |  |
| 2 | 13 | 0.2 | 82 | 54 | 1.6 | 60 | 47 | 48 |  |  |  |  |  |  |  |  |  | Cc1cc2c([nH]1)/C=C1\C(=O)Nc3ccc(cc31)-c1c(C)n[nH]c1CNCCN(C)C2=O [Ex. 127, [3a(4)Z]-6,9,16-trimethyl-9,10,11,12,13,14-hexahydro-1,17-(ethanediylidene)pyrazolo[4,3-m]dipyrrolo[3,2-f:3′,4′-i][1,4]diazacyclopentadecine-3,8(2H,5H)-dione] |  |
| 63 | 75 | 54 | 91 | 90 | 43 | 100 | 95 | 59 |  |  |  |  |  |  |  |  |  | Cc1cc2c([nH]1)/C=C1\C(=O)Nc3ccc(cc31)O[C@@H](C)COCCN(C)C2=O [Ex. 92, [10S,16a(17)Z]-2,5,10-trimethyl-6,7,9,10-tetrahydro-1H-12,14-(ethanediylidene)dipyrrolo[3,2-i:3′,4′-l][1,4,7]dioxazacyclopentadecine-4,16(5H,15H)-dione] |  |
| 96 | 100 | 100 | 100 | 98 | 89 | 100 | 100 | 100 |  |  |  |  |  |  |  |  |  | Cc1cc2c([nH]1)/C=C1\C(=O)Nc3cnc(nc31)N(C)CCCOCCN(C)C2=O [Ex.71, [17a(18)Z]-2,5,12-trimethyl-6,7,9,10,11,12-hexahydro-1H-13,15-(azenometheno)dipyrrolo[3,2-f:3′,4′-i][1,4,11,13]oxatriazacyclohexadecine-4,17(5H,16H)-dione] |  |
| 85 | 85 | 78 | 100 | 96 | 97 | 77 | 80 | 96 |  |  |  |  |  |  |  |  |  | Cc1cc2c([nH]1)/C=C1\C(=O)Nc3ccc(cc31)-c1ccnn1CCNCCNC2=O [Ex. 43, [19a(20)Z]-2-methyl-5,6,7,8,9,10-hexahydro-15,17-(ethanediylidene)pyrazolo[1,5-g]dipyrrolo[3,4-k:2′,3′-n][1,4,7]triazacyclohexadecine-4,19(1H,18H)-dione] |  |
|  |  |  |  |  |  |  |  |  |  |  |  |  |  |  |  |  |  | Cc1cc2c([nH]1)/C=C1\C(=O)Nc3ccc(cc31)-c1c(noc1C)CNCCN(C)C2=O [Ex. 139, [3a(4)Z]-6,9,16-trimethyl-10,11,12,13-tetrahydro-2H-1,17-(ethanediylidene)[1,2]oxazolo[4,3-m]dipyrrolo[3,2-f:3′,4′-i][1,4]diazacyclopentadecine-3,8(5H,9H)-dione] | % Ctrl, RET (kinases [1]; target RET; 1 μM): 42 % Ctrl; % Ctrl, FLT3(R834Q) (kinases [2]; target FLT3(R834Q); 1 μM): 39 % Ctrl; % Ctrl, ABL1(M351T)-phosphorylated (kinases [3]; target ABL1(M351T)-phosphorylated; 1 μM): 7.3 % Ctrl; % Ctrl, KIT(V559D) (kinases [4]; target KIT(V559D); 1 μM): 91 % Ctrl; % Ctrl, FLT1 (kinases [5]; target FLT1; 1 μM): 65 % Ctrl; % Ctrl, RET(V804M) (kinases [6]; target RET(V804M); 1 μM): 23 % Ctrl; % Ctrl, KIT(A829P) (kinases [7]; target KIT(A829P); 1 μM): 74 % Ctrl; % Ctrl, PDGFRA (kinases [8]; target PDGFRA; 1 μM): 74 % Ctrl; % Ctrl, KIT(D816V) (kinases [9]; target KIT(D816V); 1 μM): 63 % Ctrl |
|  |  |  |  |  |  |  |  |  | 97 | 100 | 81 | 92 | 82 | 83 | 95 | 100 | 100 | Cc1cc2c([nH]1)/C=C1\C(=O)Nc3ccc(cc31)-c1c(noc1C(C)C)COCCN(C)C2=O [Ex. 161, [3a(4)Z]-9-methyl-16-(propan-2-yl)-10,11-dihydro-2H,13H-1,17-(ethanediylidene)[1,2]oxazolo[4,3-m]dipyrrolo[3,2-f:3′,4′-i][1,4]oxazacyclopentadecine-3,8(5H,9H)-dione] |  |
